The subject of data set [1] is Puccinia recondite f. sp. tritici. The data set can be described thus: Test B: wheat leaf rust, preventive spray on wheat seedlings, visual disease rating. The following applies: 192 h; for pest or weed control at 40 ppm: 40 ppm (compound number followed by *); for pest or weed control at 200 ppm: 100 = 100% disease control, 0 = no control. It counts as in vivo. In a few lines:
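Wheat seedlings were sprayed to run-off with compound suspension, 200 ppm (≈500 g/ha) or 40 ppm where marked, containing surfactant in acetone/water. Inoculation with Puccinia recondita spores followed one day later, then 24 h in saturated humidity at 20° C and 7 days at 20° C. Disease control was rated visually, 0–100% versus controls.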

The subject of data set [2] is Erysiphe graminis f. sp. tritici. The data set can be described thus: Test A: wheat powdery mildew, preventive spray on wheat seedlings, visual disease rating. Type of data set: in vivo. The following applies: Blumeria graminis, 192 h; for pest or weed control at 40 ppm: 40 ppm (compound number followed by *); for pest or weed control at 200 ppm: 100 = 100% disease control, 0 = no control. In a few lines: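 Acetone/water (50/50) suspension with 250 ppm surfactant sprayed to run-off on wheat seedlings (200 ppm ≈ 500 g/ha); inoculated next day with E. graminis spore dust. Incubated 8 days at 20° C, then visually rated 0–100% disease control versus untreated controls; tests at 200 ppm or 40 ppm.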

The subject of the next data set is Septoria nodorum. The data set can be described thus: Test D: wheat glume blotch, preventive spray on wheat seedlings, visual disease rating. It counts as in vivo. To be noted: Parastagonospora nodorum, 216 h; for pest or weed control at 40 ppm: 40 ppm (compound number followed by *); for pest or weed control at 200 ppm: 100 = 100% disease control, 0 = no control. In a few lines:
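Compounds in 3% acetone, then 50/50 acetone–water with 250 ppm Trem 014, sprayed to run-off at 200 ppm (500 g/ha; some at 40 ppm) one day before spore inoculation. Held 48 h saturated at 20 °C, then 7 days at 20 °C; visual rating as % disease control vs untreated (0–100).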

Another data set concerns Septoria tritici. Kind of data set: Test C: wheat leaf blotch, preventive spray on wheat seedlings, visual disease rating. It counts as in vivo. To be noted: Zymoseptoria tritici, 504 h; for pest or weed control at 40 ppm: 40 ppm (compound number followed by *); for pest or weed control at 200 ppm: 100 = 100% disease control, 0 = no control. In a few lines:
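Wheat seedlings sprayed to run-off with compound in acetone/water plus 250 ppm surfactant at 200 ppm (≈500 g/ha), or 40 ppm where marked; inoculated with Septoria tritici next day. Held saturated at 20 °C for 48 h, then 19 days at 20 °C; disease control rated visually 0–100 versus controls.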

For a further data set, the system named is Botrytis cinerea. Kind of data set: Test F: tomato botrytis, preventive spray on tomato seedlings, visual disease rating. It counts as in vivo. To be noted: Botrytis cinerea, 120 h; for pest or weed control at 40 ppm: 40 ppm (compound number followed by *); for pest or weed control at 200 ppm: 100 = 100% disease control, 0 = no control. In short, it runs like this:
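Tomato seedlings sprayed to run-off with compound suspended in acetone/water (50/50) plus 250 ppm Trem 014, at 200 ppm (≈500 g/ha) or 40 ppm where marked. Inoculated next day with B. cinerea spores, 48 h saturated atmosphere at 20 °C, then 3 days at 24 °C. Visual rating, 0–100% disease control relative to controls.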

In a further data set the test system is Alternaria solani. Kind of data set: Test E: tomato early blight, preventive spray on tomato seedlings, visual disease rating. Type of data set: in vivo. To be noted: Alternaria solani, 168 h; for pest or weed control at 40 ppm: 40 ppm (compound number followed by *); for pest or weed control at 200 ppm: 100 = 100% disease control, 0 = no control. In a few lines:
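Seedlings sprayed to run-off with compound in acetone/water plus 250 ppm Trem 014 (200 ppm ≈ 500 g/ha), inoculated with spores next day. Held 48 h saturated at 27 °C, then 5 days at 20 °C; visual rating 0–100% disease control relative to controls.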

The next data set concerns Rhizoctonia oryzae. Kind of data set: Test G: turf brown patch, preventive spray on creeping bent grass seedlings, visual disease rating. It counts as in vivo. The following applies: Waitea circinata, in Agrostis stolonifera, 120 h, 200 ppm, 100 = 100% disease control, 0 = no control.

SMILES strings stand for the structures.

Usually pest or weed control stands for the degree to which the test organism was suppressed or injured, in per cent. Broadly, the melting point is the temperature, or range, at which the solid turns liquid. On to `COc1cc(OC)cc(-c2c(CC#N)cnc(C)c2-c2c(F)cc(F)cc2F)c1` [Compound 124, 4-(3,5-dimethoxyphenyl)-6-methyl-5-(2,4,6-trifluorophenyl)-3-pyridineacetonitrile], for which the melting point fell in the range of 131 to 133 °C. In data set [1], this molecule gave a pest or weed control at 40 ppm of 100%. This molecule also registered a pest or weed control at 40 ppm in data set [2] of 100%. In the data set on Septoria nodorum, this molecule displayed a pest or weed control at 40 ppm of 100%. The pest or weed control at 40 ppm with Septoria tritici came to 99%. The pest or weed control at 40 ppm in the data set with Botrytis cinerea was 100%. The pest or weed control at 40 ppm in the data set with Alternaria solani is 100%.

As to `COc1cc(OC)cc(-c2c(CCl)cnc(C)c2-c2c(F)cc(F)cc2F)c1` [Compound 110, 5-(chloromethyl)-4-(3,5-dimethoxyphenyl)-2-methyl-3-(2,4,6-trifluorophenyl)pyridine], the melting point was in the range of 110 to 115 °C. In data set [1], this molecule yielded a pest or weed control at 200 ppm of 100%. The molecule further displayed a pest or weed control at 200 ppm in data set [2] of 100%. For the same molecule, the pest or weed control at 200 ppm in the data set with Septoria nodorum was 87%. Besides, the pest or weed control at 200 ppm in the data set on Septoria tritici turned out to be 96%. Also, the pest or weed control at 200 ppm with Botrytis cinerea is 99%. The pest or weed control at 200 ppm with Alternaria solani was determined as 100%.

With `CCc1cnc(C)c(-c2c(F)cc(F)cc2F)c1-c1cc(OC)cc(OC)c1` [Compound 137, 4-(3,5-dimethoxyphenyl)-5-ethyl-2-methyl-3-(2,4,6-trifluorophenyl)pyridine], the melting point was 102 to 105 °C. In addition, in data set [1], the pest or weed control at 40 ppm is 100%. The pest or weed control at 40 ppm in data set [2] was determined as 100%. The pest or weed control at 40 ppm in the data set with Septoria nodorum stood at 97%. In the data set on Septoria tritici, this molecule showed a pest or weed control at 40 ppm of 100%. The molecule also had a pest or weed control at 40 ppm in the data set with Botrytis cinerea of 100%. The molecule also gave a pest or weed control at 40 ppm in the data set on Alternaria solani of 99%.

For `COc1cc(OC)cc(-c2c(C(C)(C)O)cnc(C)c2-c2c(F)cc(F)cc2F)c1` [Compound 44, 4-(3,5-dimethoxyphenyl)-α,α,6-trimethyl-5-(2,4,6-trifluorophenyl)-3-pyridinemethanol], the melting point was in the range of 166 to 167 °C. The same molecule yielded a pest or weed control at 200 ppm in data set [1] of 100%. The pest or weed control at 200 ppm in data set [2] came out at 99%. The pest or weed control at 200 ppm in the data set with Septoria nodorum was determined as 99%. The pest or weed control at 200 ppm in the data set with Rhizoctonia oryzae was 86%. In the data set with Septoria tritici, the pest or weed control at 200 ppm stood at 100%. Also, in the data set on Botrytis cinerea, the pest or weed control at 200 ppm came out at 99%. The pest or weed control at 200 ppm with Alternaria solani was determined as 100%.

The values are drawn from patent US20110092544A1, “FUNGICIDAL PYRIDINES” (E.I. DU PONT DE nemours and company, priority 2008, published 2011).
